Results: ChEMBL document CHEMBL4184118, “Carbazole-containing amides and ureas: Discovery of cryptochrome modulators as antihyperglycemic agents” (Bioorg Med Chem Lett, 2018)
Values after ≈ are worked out from the molar mass of the structure shown.

Target: T1, CRY2/PER2 (Homo sapiens, UniProt O15055+Q49AN0)
T1 sequence (O15055 whole entry): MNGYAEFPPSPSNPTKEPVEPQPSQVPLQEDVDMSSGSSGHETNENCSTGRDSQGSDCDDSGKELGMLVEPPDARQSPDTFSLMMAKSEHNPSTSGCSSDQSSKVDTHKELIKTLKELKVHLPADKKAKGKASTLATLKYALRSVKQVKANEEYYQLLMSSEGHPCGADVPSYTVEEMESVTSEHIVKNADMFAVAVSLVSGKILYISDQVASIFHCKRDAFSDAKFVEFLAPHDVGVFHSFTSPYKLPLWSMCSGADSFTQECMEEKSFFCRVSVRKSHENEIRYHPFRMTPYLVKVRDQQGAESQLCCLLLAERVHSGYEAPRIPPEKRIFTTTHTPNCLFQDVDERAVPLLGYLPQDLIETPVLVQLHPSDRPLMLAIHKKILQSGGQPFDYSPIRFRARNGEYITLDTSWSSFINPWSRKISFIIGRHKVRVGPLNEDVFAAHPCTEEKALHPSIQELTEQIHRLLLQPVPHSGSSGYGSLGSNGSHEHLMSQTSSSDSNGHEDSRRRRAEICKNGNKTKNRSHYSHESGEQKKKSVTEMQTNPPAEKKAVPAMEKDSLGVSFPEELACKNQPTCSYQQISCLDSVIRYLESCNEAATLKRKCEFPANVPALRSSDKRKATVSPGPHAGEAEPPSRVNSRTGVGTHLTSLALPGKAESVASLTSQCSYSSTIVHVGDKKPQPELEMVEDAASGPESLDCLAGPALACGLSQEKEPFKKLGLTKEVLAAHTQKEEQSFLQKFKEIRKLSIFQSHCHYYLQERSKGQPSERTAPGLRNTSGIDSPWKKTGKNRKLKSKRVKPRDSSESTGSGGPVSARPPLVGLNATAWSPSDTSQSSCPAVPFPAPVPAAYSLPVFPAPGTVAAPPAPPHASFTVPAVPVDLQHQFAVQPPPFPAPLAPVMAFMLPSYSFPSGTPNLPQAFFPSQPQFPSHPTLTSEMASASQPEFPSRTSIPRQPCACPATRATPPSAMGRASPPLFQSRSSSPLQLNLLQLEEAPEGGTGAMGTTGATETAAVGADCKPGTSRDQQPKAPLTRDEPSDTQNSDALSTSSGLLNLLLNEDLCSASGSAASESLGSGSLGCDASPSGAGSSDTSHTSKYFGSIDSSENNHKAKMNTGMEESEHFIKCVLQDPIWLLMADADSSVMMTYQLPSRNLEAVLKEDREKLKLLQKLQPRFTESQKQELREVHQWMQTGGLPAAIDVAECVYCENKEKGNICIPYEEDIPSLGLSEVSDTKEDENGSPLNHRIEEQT
T1 sequence (Q49AN0 whole entry): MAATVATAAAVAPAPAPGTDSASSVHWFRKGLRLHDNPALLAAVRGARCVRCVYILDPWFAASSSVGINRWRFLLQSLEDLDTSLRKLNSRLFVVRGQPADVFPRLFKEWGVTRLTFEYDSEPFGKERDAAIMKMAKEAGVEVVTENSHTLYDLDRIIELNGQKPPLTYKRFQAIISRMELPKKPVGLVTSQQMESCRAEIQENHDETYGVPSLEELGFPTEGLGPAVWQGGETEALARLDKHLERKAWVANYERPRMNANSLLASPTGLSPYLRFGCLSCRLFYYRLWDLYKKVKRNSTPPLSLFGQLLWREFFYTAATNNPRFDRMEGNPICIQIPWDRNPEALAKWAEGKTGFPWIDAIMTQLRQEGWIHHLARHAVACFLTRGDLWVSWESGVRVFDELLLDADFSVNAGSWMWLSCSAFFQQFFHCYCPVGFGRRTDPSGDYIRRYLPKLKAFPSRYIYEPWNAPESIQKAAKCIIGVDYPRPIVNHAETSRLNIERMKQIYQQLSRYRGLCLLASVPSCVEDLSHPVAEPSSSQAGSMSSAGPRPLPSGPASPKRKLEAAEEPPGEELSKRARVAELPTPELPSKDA
Assay: Modulation activity at CRY2/PER2 in human U2OS cells harboring per2-dLuc assessed as activation of per2 activity measured every 100 mins for 5 days by luciferase reporter gene assay
Type: cell-based
Settings: not given

Row | Compound | EC50 [µM]
1 | COC1CC(=O)N(CC(O)Cn2c3ccc(F)cc3c3cc(F)ccc32)C1 (configuration not stated) | 1.14
2 | O=C1N(CC(O)Cn2c3ccc(F)cc3c3cc(F)ccc32)CCCN1c1ccccc1 (configuration not stated) | 0.171
3 | O=C1CCc2ccccc2N1CC(O)Cn1c2ccc(F)cc2c2cc(F)ccc21 (configuration not stated) | 7.43
4 | O=C1NCCCN1CC(O)Cn1c2ccc(F)cc2c2cc(F)ccc21 (configuration not stated) | 0.188
5 | CC1CN(CC(O)Cn2c3ccc(F)cc3c3cc(F)ccc32)C(=O)N1 (configuration not stated) | 0.667
6 | O=C1N(CC(O)Cn2c3ccc(F)cc3c3cc(F)ccc32)CCN1c1ccccc1 (configuration not stated) | 0.528
7 | COC1CCN(CC(O)Cn2c3ccc(F)cc3c3cc(F)ccc32)C1=O (configuration not stated) | 0.855
8 | O=C1C(c2ccccc2)CCCN1CC(O)Cn1c2ccc(F)cc2c2cc(F)ccc21 (configuration not stated) | 0.547
9 | O=C1CCCCN1CC(O)Cn1c2ccc(F)cc2c2cc(F)ccc21 (configuration not stated) | 0.192
10 | O=C1CCCN1CC(O)Cn1c2ccc(F)cc2c2cc(F)ccc21 (configuration not stated) | 0.625
11 | COC1CCC(=O)N(CC(O)Cn2c3ccc(F)cc3c3cc(F)ccc32)C1 (configuration not stated) | 0.397
12 | O=C1N(CC(O)Cn2c3ccc(F)cc3c3cc(F)ccc32)CCCC1(F)F (configuration not stated) | 0.194
13 | O=C1C2CC2CN1CC(O)Cn1c2ccc(F)cc2c2cc(F)ccc21 (configuration not stated) | 0.246
14 | CC1CCC(=O)N(CC(O)Cn2c3ccc(F)cc3c3cc(F)ccc32)C1 (configuration not stated) | 0.224
15 | O=C1CC2CC2CN1CC(O)Cn1c2ccc(F)cc2c2cc(F)ccc21 (configuration not stated) | 0.149
16 | CC1CC(=O)N(CC(O)Cn2c3ccc(F)cc3c3cc(F)ccc32)C1 (configuration not stated) | 1.03
17 | O=C1N(CC(O)Cn2c3ccc(F)cc3c3cc(F)ccc32)CCC1(F)F (configuration not stated) | 0.716
18 | O=C1C(F)CCCN1CC(O)Cn1c2ccc(F)cc2c2cc(F)ccc21 (configuration not stated) | 0.079
19 | CC1(C)CCCN(CC(O)Cn2c3ccc(F)cc3c3cc(F)ccc32)C1=O (configuration not stated) | 0.463
20 | O=C1OCCN1CC(O)Cn1c2ccc(F)cc2c2cc(F)ccc21 (configuration not stated) | 9.77
21 | CC1CCNC(=O)N1CC(O)Cn1c2ccc(F)cc2c2cc(F)ccc21 (configuration not stated) | 0.742
22 | CC1(C)CCN(CC(O)Cn2c3ccc(F)cc3c3cc(F)ccc32)C1=O (configuration not stated) | 0.164
23 | O=C1C2CCC(C2)N1CC(O)Cn1c2ccc(F)cc2c2cc(F)ccc21 (configuration not stated) | 0.163
24 | O=C1c2ccccc2CCN1CC(O)Cn1c2ccc(F)cc2c2cc(F)ccc21 (configuration not stated) | 1.36
25 | CC1CCN(CC(O)Cn2c3ccc(F)cc3c3cc(F)ccc32)C(=O)C1 (configuration not stated) | 0.128
26 | O=C1OCCCN1CC(O)Cn1c2ccc(F)cc2c2cc(F)ccc21 (configuration not stated) | 4.98
27 | CN1CCN(CC(O)Cn2c3ccc(F)cc3c3cc(F)ccc32)C1=O (configuration not stated) | 0.406

System: not listed separately
Assay: Kinetic solubility in simulated gastric fluid
Type: physicochemical
Settings: read-out: Kinetic_solubility

Row | Compound | solubility kinetic [µM]
28 | O=C1NCCCN1CC(O)Cn1c2ccc(F)cc2c2cc(F)ccc21 (configuration not stated) | 85.6 (≈ 30.8 µg/mL)
29 | CC1CN(CC(O)Cn2c3ccc(F)cc3c3cc(F)ccc32)C(=O)N1 (configuration not stated) | 181 (≈ 64.9 µg/mL)
30 | O=C1CCCN1CC(O)Cn1c2ccc(F)cc2c2cc(F)ccc21 (configuration not stated) | 148 (≈ 51.1 µg/mL)
31 | O=C1C2CCC(C2)N1CC(O)Cn1c2ccc(F)cc2c2cc(F)ccc21 (configuration not stated) | 168 (≈ 62.2 µg/mL)

System: not listed separately
Assay: MRT in db/db mouse at 30 mg/kg, po qd after 1 to 24 hrs
Type: ADME, organism-based
Settings: in vivo

Row | Compound | MRT [h]
32 | O=C1NCCCN1CC(O)Cn1c2ccc(F)cc2c2cc(F)ccc21 (configuration not stated) | 2.98
33 | CC1CN(CC(O)Cn2c3ccc(F)cc3c3cc(F)ccc32)C(=O)N1 (configuration not stated) | 4.16
34 | O=C1CCCN1CC(O)Cn1c2ccc(F)cc2c2cc(F)ccc21 (configuration not stated) | 3.32
35 | O=C1C2CCC(C2)N1CC(O)Cn1c2ccc(F)cc2c2cc(F)ccc21 (configuration not stated) | 2.92

System: not listed separately
Assay: Half life in db/db mouse at 30 mg/kg, po qd
Type: ADME, organism-based
Settings: in vivo

Row | Compound | half-life [h]
36 | O=C1NCCCN1CC(O)Cn1c2ccc(F)cc2c2cc(F)ccc21 (configuration not stated) | 2.39
37 | CC1CN(CC(O)Cn2c3ccc(F)cc3c3cc(F)ccc32)C(=O)N1 (configuration not stated) | 2.58
38 | O=C1CCCN1CC(O)Cn1c2ccc(F)cc2c2cc(F)ccc21 (configuration not stated) | 2.95
39 | O=C1C2CCC(C2)N1CC(O)Cn1c2ccc(F)cc2c2cc(F)ccc21 (configuration not stated) | 2.14

System: not listed separately
Assay: Total Cmax in db/db mouse at 30 mg/kg, po qd after 1 to 24 hrs
Type: ADME, organism-based
Parameters: dose 30 mg/kg, route oral
Settings: in vivo

Row | Compound | Cmax [µM]
40 | O=C1NCCCN1CC(O)Cn1c2ccc(F)cc2c2cc(F)ccc21 (configuration not stated) | 1.02
41 | CC1CN(CC(O)Cn2c3ccc(F)cc3c3cc(F)ccc32)C(=O)N1 (configuration not stated) | 0.557
42 | O=C1CCCN1CC(O)Cn1c2ccc(F)cc2c2cc(F)ccc21 (configuration not stated) | 0.415
43 | O=C1C2CCC(C2)N1CC(O)Cn1c2ccc(F)cc2c2cc(F)ccc21 (configuration not stated) | 0.551

System: Mus musculus
Assay: Unbound Cmax in db/db mouse at 30 mg/kg, po qd after 1 to 24 hrs
Type: ADME, organism-based
Settings: in vivo

Row | Compound | fCmax [µM]
44 | O=C1NCCCN1CC(O)Cn1c2ccc(F)cc2c2cc(F)ccc21 (configuration not stated) | 0.045
45 | CC1CN(CC(O)Cn2c3ccc(F)cc3c3cc(F)ccc32)C(=O)N1 (configuration not stated) | 0.01
46 | O=C1CCCN1CC(O)Cn1c2ccc(F)cc2c2cc(F)ccc21 (configuration not stated) | 0.011
47 | O=C1C2CCC(C2)N1CC(O)Cn1c2ccc(F)cc2c2cc(F)ccc21 (configuration not stated) | 0.01
